Columns and labels:
[1] = Cmax in mouse at 2.5 mg/kg, po; assay type: ADME, organism-based; design: dose 2.5 mg/kg, route oral; settings: in vivo
[2] = Tmax in mouse at 2.5 mg/kg, po; assay type: ADME, organism-based; settings: in vivo
[3] = AUC in mouse at 2.5 mg/kg, po; assay type: ADME, organism-based; settings: in vivo
[4] = Oral bioavailability in mouse at 2.5 mg/kg; assay type: ADME, organism-based; settings: in vivo
[5] = Volume of distribution at steady state in Sprague-Dawley rat at 0.5 mg/kg, iv by LC/MS/MS analysis; assay type: ADME, organism-based; settings: in vivo, read-out: Vdss
[6] = Half life in Sprague-Dawley rat at 0.5 mg/kg, iv by LC/MS/MS analysis; assay type: ADME, organism-based; settings: in vivo
[7] = Cmax in Sprague-Dawley rat at 2.5 mg/kg, po by LC/MS/MS analysis; assay type: ADME, organism-based; design: dose 2.5 mg/kg, route oral; settings: in vivo
[8] = Tmax in Sprague-Dawley rat at 2.5 mg/kg, po by LC/MS/MS analysis; assay type: ADME, organism-based; settings: in vivo
[9] = AUC in Sprague-Dawley rat at 2.5 mg/kg, po by LC/MS/MS analysis; assay type: ADME, organism-based; settings: in vivo
[10] = Oral bioavailability in Sprague-Dawley rat at 2.5 mg/kg by LC/MS/MS analysis; assay type: ADME, organism-based; settings: in vivo
[11] = Clearance in dog at 0.5 mg/kg, iv; assay type: ADME, organism-based, Canis lupus familiaris; settings: in vivo
[12] = Volume of distribution at steady state in dog at 0.5 mg/kg, iv; assay type: ADME, organism-based, Canis lupus familiaris; settings: in vivo, read-out: Vdss
[13] = Half life in dog at 0.5 mg/kg, iv; assay type: ADME, organism-based, Canis lupus familiaris; settings: in vivo
[14] = Cmax in dog at 2.5 mg/kg, po; assay type: ADME, organism-based, Canis lupus familiaris; design: dose 2.5 mg/kg, route oral; settings: in vivo
[15] = AUC in dog at 2.5 mg/kg, po; assay type: ADME, organism-based, Canis lupus familiaris; settings: in vivo
[16] = Oral bioavailability in dog at 2.5 mg/kg; assay type: ADME, organism-based, Canis lupus familiaris; settings: in vivo
[17] = Clearance in Cynomolgus monkey at 0.5 mg/kg, iv by LC/MS/MS analysis; assay type: ADME, organism-based, Macaca fascicularis; settings: in vivo
[18] = Volume of distribution at steady state in Cynomolgus monkey at 0.5 mg/kg, iv by LC/MS/MS analysis; assay type: ADME, organism-based, Macaca fascicularis; settings: in vivo, read-out: Vdss
[19] = Half life in Cynomolgus monkey at 0.5 mg/kg, iv by LC/MS/MS analysis; assay type: ADME, organism-based, Macaca fascicularis; settings: in vivo
[20] = Tmax in Cynomolgus monkey at 2.5 mg/kg, po by LC/MS/MS analysis; assay type: ADME, organism-based, Macaca fascicularis; settings: in vivo
[21] = Cmax in Cynomolgus monkey at 2.5 mg/kg, po by LC/MS/MS analysis; assay type: ADME, organism-based, Macaca fascicularis; design: dose 2.5 mg/kg, route oral; settings: in vivo
[22] = AUC in Cynomolgus monkey at 2.5 mg/kg, po by LC/MS/MS analysis; assay type: ADME, organism-based, Macaca fascicularis; settings: in vivo
[23] = Oral bioavailability in Cynomolgus monkey at 2.5 mg/kg by LC/MS/MS analysis; assay type: ADME, organism-based, Macaca fascicularis; settings: in vivo
[24] = Toxicity in anesthetized guinea-pig at 0.19 to 6 mg/kg, iv administered for 5 mins; assay type: organism-based, Cavia porcellus; settings: in vivo
[25] = Toxicity in anesthetized dog assessed as induction of adverse effect at 0.08 to 2.5 mg/kg, iv administered for 5 mins measured after 5 to 30 mins; assay type: organism-based, Canis lupus familiaris; settings: in vivo
[26] = Toxicity in po dosed Sprague-Dawley rat administered as suspension for 2 weeks; assay type: organism-based; settings: in vivo
[27] = AUC (0 to 24 hrs) in Sprague-Dawley rat at 250 mg/kg/day administered as suspension for 2 weeks; assay type: ADME, organism-based; design: dose 250 mg/kg/day, time < 24 hr; settings: in vivo
[28] = Toxicity in po dosed Beagle dog assessed as induction of adverse effect administered for 2 weeks; assay type: organism-based, Canis lupus familiaris; settings: in vivo
[29] = AUC in Beagle dog at 6 mg/kg/day, po administered for 2 weeks; assay type: ADME, organism-based, Canis lupus familiaris; settings: in vivo
Canis familiaris = species on record: Canis familiaris; assay: animal or person; assay type: functional, organism-based; settings: Canis lupus familiaris, Beagle
[30] = Tmax in dog at 2.5 mg/kg, po; assay type: ADME, organism-based, Canis lupus familiaris; settings: in vivo

C[C@H]1SC(N)=N[C@](C)(c2cc(NC(=O)c3cnc(OCF)cn3)ccc2F)[C@H]1F
Cmax [1]: 195 ng/mL | Tmax [2]: 0.3 h | AUC [3]: 596 ng·h/mL | bioavailability [4]: 58% | Vd [5]: 5 L/kg | half-life [6]: 2.2 h | Cmax [7]: 148 ng/mL | Tmax [8]: 0.7 h | AUC [9]: 566 ng·h/mL | bioavailability [10]: 38% | clearance [11]: 2.6 mL/min/kg | Vd [12]: 2.8 L/kg | half-life [13]: 13.7 h | Cmax [14]: 685 ng/mL | AUC [15]: 10400 ng·h/mL | bioavailability [16]: 95% | clearance [17]: 23 mL/min/kg | Vd [18]: 7 L/kg | half-life [19]: 4.9 h | Tmax [20]: 3 h | Cmax [21]: 54 ng/mL | AUC [22]: 429 ng·h/mL | bioavailability [23]: 24% | NOAEL [24]: > 6.9 µg/mL | fNOAEL [24]: 2.4 µM | NOAEL [25]: > 6.9 µg/mL | fNOAEL [25]: 1.3 µM | NOAEL at 336 h [26]: 250 mg/kg/day | AUC at 24 h [27]: 68000 ng·h/mL | NOAEL at 336 h [28]: 6 mg/kg/day | AUC at 336 h [29]: 41000 ng·h/mL | EC50 (Canis familiaris): 1.8 nM | Tmax [30]: 1.8 h

— ChEMBL document CHEMBL4321815, “Discovery of an Extremely Potent Thiazine-Based β-Secretase Inhibitor with Reduced Cardiovascular and Liver Toxicity at a Low Projected Human Dose” (J Med Chem, 2019)
